Results published in US20060002866A1, “Method for protecting the skin from aging” (priority 2002, published 2006).

Tested on: lumican mRNA in MRC5 fibroblasts
Test: Stimulation of the lumican mRNA content in MRC5 fibroblasts (Northern Blot)
Type: cell-based, human
Conditions: for Mean value [mRNA lumican/36B4 mRNA]: MRC5 fibroblasts, lumican mRNA against housekeeping gene 36B4 mRNA
Procedure: Northern Blot technique for determining the RNA messengers in cells of low molecular weight proteoglycans, such as lumican and syndecan.
The stimulation of the lumican mRNA content in MRC5 fibroblasts incubated with increasing concentrations of the growth factor IGF-1 (Insulin-like Growth Factor 1, Sigma-Aldrich) was investigated. The content of mRNA of the proteoglycan lumican in cultures of human fibroblasts—MRC5 fibroblasts—was determined by the Northern Blot method.

## IGF-1: growth factor IGF-1 (Insulin-like Growth Factor 1, Sigma-Aldrich)
IGF-1 0.1 ng/ml
  Mean value [mRNA lumican/36B4 mRNA]: 1.38
IGF-1 1 ng/ml
  Mean value [mRNA lumican/36B4 mRNA]: 2
IGF-1 10 ng/ml
  Mean value [mRNA lumican/36B4 mRNA]: 3.2
Cultures of MRC5 fibroblasts
  Effect on mRNA content for lumican: increases the mRNA content for lumican
